Assay results from patent US4401595A, “4-Allyl azetidinone intermediate for β-lactam antibacterial agents” (Beecham Group Limited, priority 1977, dated 1983).
Values after ≈ are worked out from the molar mass of the structure shown. Read-outs that look alike come from different tables or passages of the source. One block for each molecule: values may come before it.

Experiments:
Staph. aureus Russell = test: MIC in agar; format: cell-based; settings: Staphylococcus aureus, read-out: MIC, concentration required to inhibit the growth
Strep pneumoniae = test: MIC in agar; format: cell-based; settings: read-out: concentration required to inhibit the growth
Strep. pyogenes = test: MIC in agar; format: cell-based; settings: Streptococcus pyogenes, Strep. pyogenes (strain not given), read-out: concentration required to inhibit the growth
[1] = biological target: β-lactamase, Proteus mirabilis C889; test: β-lactamase inhibition I50; format: biochemical
[2] = biological target: β-lactamase, Staphylococcus aureus Russell (Staphylococcus aureus, UniProt P00807); test: β-lactamase inhibition I50; format: biochemical
Klebsiella aerogenes A = test: MIC in agar; format: cell-based; settings: read-out: MIC, concentration required to inhibit the growth
Shigella sonnei MB 11967 = test: MIC in agar; format: cell-based; settings: MB11967, read-out: MIC, concentration required to inhibit the growth
Staph. aureus Oxford = test: MIC in agar; format: cell-based; settings: Staphylococcus aureus, read-out: concentration required to inhibit the growth
Enterobacter cloacae N1 = test: MIC in agar; format: cell-based; settings: read-out: concentration required to inhibit the growth
Serratia marcescens US20 = test: MIC in agar; format: cell-based
Bacillus subtilis A = test: MIC in agar; format: cell-based; settings: read-out: MIC, concentration required to inhibit the growth
Citrobacter freundii E8 = test: MIC in agar; format: cell-based; settings: read-out: MIC, concentration required to inhibit the growth
Staph. aureus 1517 = test: MIC in agar; format: cell-based; settings: Staphylococcus aureus, read-out: MIC, concentration required to inhibit the growth
Strep faecalis I = test: MIC in agar; format: cell-based; settings: read-out: concentration required to inhibit the growth
Strep pyogenes CN10 = test: MIC in agar; format: cell-based; settings: read-out: concentration required to inhibit the growth
[3] = biological target: β-lactamase, Enterobacter P99 (Enterobacter cloacae, UniProt P05364); test: β-lactamase inhibition I50; format: biochemical
[4] = biological target: β-lactamase, Pseudomonas aeruginosa A (Pseudomonas aeruginosa, UniProt P24735); test: β-lactamase inhibition I50; format: biochemical
[5] = biological target: β-lactamase, Klebsiella aerogenes E70; test: β-lactamase inhibition I50; format: biochemical
[6] = biological target: β-lactamase, Escherichia coli JT4 (Escherichia coli, UniProt P62593); test: β-lactamase inhibition I50; format: biochemical
[7] = biological target: β-lactamase, Pseudomonas dalgleish (Pseudomonas aeruginosa, UniProt P16897); test: β-lactamase inhibition I50; format: biochemical
E. coli 0111 = test: MIC in agar; format: cell-based; settings: Escherichia coli, read-out: concentration required to inhibit the growth
[8] = test system: Salmonella typhimurium CT10; test: MIC in agar; format: cell-based; settings: Salmonella enterica, read-out: concentration required to inhibit the growth
Proteus mirabilis C977 = test: MIC in agar; format: cell-based; settings: read-out: concentration required to inhibit the growth
Proteus morganii I 580 = test: MIC in agar; format: cell-based; settings: Morganella morganii, I580, read-out: concentration required to inhibit the growth
Proteus rettgeri WM16 = test: MIC in agar; format: cell-based; settings: Providencia rettgeri, read-out: concentration required to inhibit the growth
Proteus vulgaris WO 91 = test: MIC in agar; format: cell-based; settings: WO91, read-out: concentration required to inhibit the growth
Klebsiella aerogenes = test: MIC in agar; format: cell-based; settings: Klebsiella aerogenes (strain not given), read-out: concentration required to inhibit the growth
Salmonella typhimurium = test: MIC in agar; format: cell-based; settings: Salmonella enterica, Salmonella typhimurium (strain not given), read-out: concentration required to inhibit the growth
Pseudomonas aeruginosa A = test: MIC in agar; format: cell-based; settings: read-out: concentration required to inhibit the growth
[9] = Serratia marcescens US20, read-out: concentration required to inhibit the growth

Chain of β-lactamase, Escherichia coli JT4 (P62593 24-286 limits assumed): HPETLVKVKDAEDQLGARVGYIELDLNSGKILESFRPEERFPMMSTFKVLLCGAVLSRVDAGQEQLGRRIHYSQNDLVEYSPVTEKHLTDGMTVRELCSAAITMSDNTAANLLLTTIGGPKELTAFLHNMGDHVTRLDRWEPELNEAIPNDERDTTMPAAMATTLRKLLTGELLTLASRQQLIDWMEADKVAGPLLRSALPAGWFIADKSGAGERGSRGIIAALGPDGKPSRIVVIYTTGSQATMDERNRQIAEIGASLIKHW
Chain of β-lactamase, Enterobacter P99 (P05364 21-381): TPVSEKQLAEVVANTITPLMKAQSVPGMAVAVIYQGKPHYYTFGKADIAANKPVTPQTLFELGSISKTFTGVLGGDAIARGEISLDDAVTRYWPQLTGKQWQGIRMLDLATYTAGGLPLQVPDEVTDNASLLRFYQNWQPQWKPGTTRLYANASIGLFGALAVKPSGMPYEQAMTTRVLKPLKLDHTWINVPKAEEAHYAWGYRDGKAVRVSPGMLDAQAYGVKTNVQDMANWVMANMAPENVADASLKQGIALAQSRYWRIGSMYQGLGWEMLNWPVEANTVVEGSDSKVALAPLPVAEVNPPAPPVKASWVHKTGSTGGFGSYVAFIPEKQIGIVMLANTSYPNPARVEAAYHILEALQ
Chain of β-lactamase, Pseudomonas aeruginosa A (P24735 27-397): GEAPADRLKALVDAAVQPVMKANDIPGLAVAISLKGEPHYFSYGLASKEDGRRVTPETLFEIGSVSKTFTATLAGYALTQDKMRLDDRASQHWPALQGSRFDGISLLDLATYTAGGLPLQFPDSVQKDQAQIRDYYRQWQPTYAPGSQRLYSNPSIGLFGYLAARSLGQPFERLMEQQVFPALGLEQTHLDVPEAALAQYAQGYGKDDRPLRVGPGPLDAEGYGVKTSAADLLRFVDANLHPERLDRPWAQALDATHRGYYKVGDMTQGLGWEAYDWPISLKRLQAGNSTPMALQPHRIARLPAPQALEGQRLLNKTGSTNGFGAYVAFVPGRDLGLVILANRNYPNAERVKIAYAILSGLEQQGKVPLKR
Chain of β-lactamase, Pseudomonas dalgleish (P16897 18-288): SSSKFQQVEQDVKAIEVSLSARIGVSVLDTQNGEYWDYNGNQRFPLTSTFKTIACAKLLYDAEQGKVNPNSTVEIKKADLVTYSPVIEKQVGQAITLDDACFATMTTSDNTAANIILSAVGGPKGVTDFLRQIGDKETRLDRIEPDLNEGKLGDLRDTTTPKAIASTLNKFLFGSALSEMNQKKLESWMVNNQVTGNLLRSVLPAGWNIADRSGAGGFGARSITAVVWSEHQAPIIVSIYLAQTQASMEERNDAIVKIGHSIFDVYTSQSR

- MIC (Staph. aureus Russell): 2.46 µg/mL (≈ 6.37 µM)
- MIC (Strep pneumoniae): 7.4 µg/mL (≈ 19.2 µM)
- MIC (Strep. pyogenes): 0.8 µg/mL (≈ 2.07 µM)
SMILES: COC(=O)/C=C/CC1C(=O)N2C(C(=O)OCc3ccc([N+](=O)[O-])cc3)=CCC12 (stereo not shown) [53a, p-Nitrobenzyl 6-(3-methoxycarbonyl-2-propen-1-yl)-7-oxo-1-azabicyclo[3,2,0]hept-2-ene-2-carboxylate]

SMILES: O=C(OCc1ccccc1)C1=CC[C@@H]2[C@H](C(O)c3ccccc3)C(=O)N12 (stereo partly shown) [compound 30, Benzyl 6-(1-hydroxy-1-phenylmethyl)-7-oxo-1-azabicyclo[3,2,0]hept-2-ene-2-carboxylate]
- β-lactamase inhibition I50 [1]: 0.27 µg/mL
- IC50 [2]: 0.149 µM

SMILES: CC(C)(O)[C@H]1C(=O)N2C(C(=O)OCc3ccccc3)=CC[C@@H]12 (relative stereo) [Example 4 cis-isomer, Benzyl 6-(2-hydroxy-2-propyl)-7-oxo-1-azabicyclo[3,2,0]hept-2-ene-2-carboxylate]
- MIC (Klebsiella aerogenes A): ≤ 2 µg/mL
- MIC (Shigella sonnei MB 11967): ≤ 2 µg/mL
- MIC (Staph. aureus Russell): ≤ 2 µg/mL
- MIC (Staph. aureus Oxford): ≤ 2 µg/mL
- MIC (Enterobacter cloacae N1): 20 µg/mL (≈ 66.4 µM)
- MIC (Serratia marcescens US20; [9]): 20 µg/mL (≈ 66.4 µM)

SMILES: COC(=O)/C=C/CC1C(=O)N2C(C(=O)OCC(Cl)(Cl)Cl)=CCC12 (stereo not shown) [compound 8, 2,2,2-Trichloroethyl-6-(3-methoxycarbonyl-2-propen-1-yl)-7-oxo-1-azabicyclo[3,2,0]hept-2-ene-2-carboxylate]
- MIC (Bacillus subtilis A): 20 µg/mL (≈ 52.3 µM)
- MIC (Citrobacter freundii E8): 20 µg/mL (≈ 52.3 µM)
- MIC (Klebsiella aerogenes A): 20 µg/mL (≈ 52.3 µM)
- MIC (Shigella sonnei MB 11967): 20 µg/mL (≈ 52.3 µM)
- MIC (Staph. aureus Russell): ≤ 2 µg/mL
- MIC (Staph. aureus 1517): ≤ 2 µg/mL
- MIC (Staph. aureus Oxford): ≤ 2 µg/mL
- MIC (Strep faecalis I): 20 µg/mL (≈ 52.3 µM)
- MIC (Strep pneumoniae): 20 µg/mL (≈ 52.3 µM)
- MIC (Strep pyogenes CN10): 20 µg/mL (≈ 52.3 µM)

SMILES: O=CCC1C(=O)N2C(C(=O)OCc3ccccc3)=CCC12 (stereo not shown) [compound 4, Benzyl 6-(2-oxoethyl)-7-oxo-1-azabicyclo[3,2,0]hept-2-ene-2-carboxylate]
- IC50 [3]: 5.61 µM
- IC50 [4]: > 140 µM
- β-lactamase inhibition I50 [1]: 2.1 µg/mL
- β-lactamase inhibition I50 [5]: > 40 µg/mL
- IC50 [6]: < 4.21 µM
- IC50 [7]: 3.51 µM
- IC50 [2]: > 35.1 µM

SMILES: COC(=O)/C=C/CC1C(=O)N2C(C(=O)OCOC(=O)C(C)(C)C)=CCC12 (stereo not shown) [compound 52, Pivaloyloxymethyl 6-(3-methoxycarbonyl-2-propen-1-yl)-7-oxo-1-azabicyclo[3,2,0]hept-2-ene-2-carboxylate]
- MIC (Bacillus subtilis A): 20 µg/mL (≈ 54.7 µM)
- MIC (Klebsiella aerogenes A): 20 µg/mL (≈ 54.7 µM)
- MIC (Shigella sonnei MB 11967): 20 µg/mL (≈ 54.7 µM)
- MIC (Staph. aureus Russell): 2 µg/mL (≈ 5.47 µM)
- MIC (Staph. aureus 1517): 2 µg/mL (≈ 5.47 µM)
- MIC (Staph. aureus Oxford): 2 µg/mL (≈ 5.47 µM)
- MIC (E. coli 0111): 20 µg/mL (≈ 54.7 µM)
- MIC [8]: 20 µg/mL (≈ 54.7 µM)

SMILES: COC(=O)/C=C/CC1C(=O)N2C(C(=O)OCc3ccccc3)=CCC12 (stereo not shown) [compound 5, Benzyl 6-(3-methoxycarbonyl-2-propen-1-yl)-7-oxo-1-azabicyclo[3,2,0]hept-2-ene-2-carboxylate]
- MIC (Bacillus subtilis A): 20 µg/mL (≈ 58.6 µM)
- MIC (Citrobacter freundii E8): 20 µg/mL (≈ 58.6 µM)
- MIC (Klebsiella aerogenes A): 20 µg/mL (≈ 58.6 µM)
- MIC (Shigella sonnei MB 11967): 20 µg/mL (≈ 58.6 µM)
- MIC (Staph. aureus Russell): 2 µg/mL (≈ 5.86 µM)
- MIC (Staph. aureus 1517): 2 µg/mL (≈ 5.86 µM)

SMILES: O=C(OCc1ccccc1)C1=CC[C@H]2[C@@H](C3(O)CCCCC3)C(=O)N12 (relative stereo) [compound 34, Benzyl 6-(1-hydroxycyclohex-1-yl)-7-oxo-1-azabicyclo[3,2,0]hept-2-ene-2-carboxylate]
- IC50 [3]: 14.6 µM
- IC50 [4]: 4.1 µM
- IC50 [6]: 46.9 µM
- IC50 [2]: 13.5 µM

SMILES: N#C/C=C/C[C@H]1C(=O)N2C(C(=O)OC3OC(=O)c4ccccc43)=CC[C@@H]12 (relative stereo) [compound 61, Phthalidyl 6-(3-cyano-2-propen-1-yl)-7-oxo-1-azabicyclo[3,2,0]hept-2-ene-2-carboxylat]
- MIC (Citrobacter freundii E8): 7.3 µg/mL (≈ 20.8 µM)
- MIC (Shigella sonnei MB 11967): 22 µg/mL (≈ 62.8 µM)
- MIC (Staph. aureus Russell): 2.4 µg/mL (≈ 6.85 µM)
- MIC (Staph. aureus Oxford): 2.4 µg/mL (≈ 6.85 µM)
- MIC (Enterobacter cloacae N1): 22 µg/mL (≈ 62.8 µM)
- MIC (Serratia marcescens US20; [9]): 22 µg/mL (≈ 62.8 µM)
- MIC (E. coli 0111): 7.3 µg/mL (≈ 20.8 µM)
- MIC (Proteus mirabilis C977): 66.6 µg/mL (≈ 190 µM)
- MIC (Proteus morganii I 580): 22 µg/mL (≈ 62.8 µM)
- MIC (Proteus rettgeri WM16): 22 µg/mL (≈ 62.8 µM)
- MIC (Proteus vulgaris WO 91): 66.6 µg/mL (≈ 190 µM)
- MIC (Klebsiella aerogenes): 7.3 µg/mL (≈ 20.8 µM)
- MIC (Salmonella typhimurium): 7 µg/mL (≈ 20 µM)

SMILES: COC(=O)/C=C/C[C@H]1C(=O)N2C(C(=O)OC3OC(=O)c4ccccc43)=CC[C@@H]12 (relative stereo) [compound 41, Phthalidyl 6-(3-methoxycarbonyl-2-propen-1-yl)-7-oxo-1-azabicyclo[3,2,0]hept-2-ene-2-carboxylate]
- MIC (Bacillus subtilis A): 25 µg/mL (≈ 65.2 µM)
- MIC (Klebsiella aerogenes A): 50 µg/mL (≈ 130 µM)
- MIC (Shigella sonnei MB 11967): 50 µg/mL (≈ 130 µM)
- MIC (Staph. aureus Russell): ≤ 0.8 µg/mL
- MIC (Staph. aureus 1517): ≤ 0.8 µg/mL
- MIC (Staph. aureus Oxford): ≤ 0.8 µg/mL
- MIC (Strep pyogenes CN10): ≤ 0.8 µg/mL
- MIC (E. coli 0111): 50 µg/mL (≈ 130 µM)
- MIC (Proteus mirabilis C977): 100 µg/mL (≈ 261 µM)
- MIC [8]: 50 µg/mL (≈ 130 µM)

SMILES: N#C/C=C/C[C@H]1C(=O)N2C(C(=O)OCc3ccccc3)=CC[C@@H]12 (relative stereo) [compound 56, Benzyl 6-(3-cyano-2-propen-1-yl)-7-oxo-1-azabicyclo[3,2,0]hept-2-ene-2-carboxylat]
- MIC (Bacillus subtilis A): 20 µg/mL (≈ 64.9 µM)
- MIC (Citrobacter freundii E8): 20 µg/mL (≈ 64.9 µM)
- MIC (Klebsiella aerogenes A): 20 µg/mL (≈ 64.9 µM)
- MIC (Shigella sonnei MB 11967): 20 µg/mL (≈ 64.9 µM)
- MIC (Staph. aureus Russell): ≤ 2 µg/mL
- MIC (Staph. aureus 1517): ≤ 2 µg/mL
- MIC (Staph. aureus Oxford): ≤ 2 µg/mL
- MIC (Enterobacter cloacae N1): 20 µg/mL (≈ 64.9 µM)
- MIC (Serratia marcescens US20; [9]): 20 µg/mL (≈ 64.9 µM)
- MIC (E. coli 0111): 20 µg/mL (≈ 64.9 µM)
- MIC (Proteus mirabilis C977): 20 µg/mL (≈ 64.9 µM)
- MIC [8]: 20 µg/mL (≈ 64.9 µM)
- MIC (Proteus morganii I 580): 20 µg/mL (≈ 64.9 µM)
- MIC (Proteus rettgeri WM16): 20 µg/mL (≈ 64.9 µM)

SMILES: O=C(OC1OC(=O)c2ccccc21)C1=CCC2CC(=O)N12 (stereo not shown) [compound 81, Phthalidyl 7-oxo-1-azabicyclo[3,2,0]hept-2-ene-2-carboxylate]
- MIC (Bacillus subtilis A): 20 µg/mL (≈ 70.1 µM)
- MIC (Citrobacter freundii E8): 20 µg/mL (≈ 70.1 µM)
- MIC (Klebsiella aerogenes A): 20 µg/mL (≈ 70.1 µM)
- MIC (Staph. aureus Russell): 20 µg/mL (≈ 70.1 µM)
- MIC (Staph. aureus Oxford): 20 µg/mL (≈ 70.1 µM)
- MIC (Enterobacter cloacae N1): 20 µg/mL (≈ 70.1 µM)
- MIC (Serratia marcescens US20; US20, Serratia marcescens VS20, read-out: concentration required to inhibit the growth): 20 µg/mL (≈ 70.1 µM)
- MIC (E. coli 0111): 20 µg/mL (≈ 70.1 µM)
- MIC (Proteus mirabilis C977): 20 µg/mL (≈ 70.1 µM)
- MIC [8]: 20 µg/mL (≈ 70.1 µM)
- MIC (Pseudomonas aeruginosa A): 160 µg/mL (≈ 561 µM)
